# Test results from patent publication US10370366B2 (Flatley Discovery Lab, LLC, priority 2013, dated 2019).
# Target: T1, human F508del CFTR (Homo sapiens, UniProt P13569, DEL508-508)
# T1 construct: expressed in transfected cells; host or cells: Fisher Rat Thyroid (FRT) cells
# Assay: CFTR-YFP High Throughput Assay
# Format: cell-based
# Conditions: FRT cells expressing human F508del CFTR and YFP; for Emax: EMax normalized to the positive control, read-out: % Efficacy
# Procedure, shortened: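 FRT cells stably co-expressing human F508del CFTR and halide-sensitive YFP-H148Q/I152L; for correction, compound (2 nM-40 μM) incubated 24-26 h at 37° C, washed, then stimulated 60-120 min at RT with 20 μM forskolin plus 30 μM potentiator P3. Iodide-induced YFP quench (Ex 500/Em 540 nm) recorded; quench rates least-squares fitted.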
# T1 sequence (P13569 with tags, fused parts or gaps DEL508-508): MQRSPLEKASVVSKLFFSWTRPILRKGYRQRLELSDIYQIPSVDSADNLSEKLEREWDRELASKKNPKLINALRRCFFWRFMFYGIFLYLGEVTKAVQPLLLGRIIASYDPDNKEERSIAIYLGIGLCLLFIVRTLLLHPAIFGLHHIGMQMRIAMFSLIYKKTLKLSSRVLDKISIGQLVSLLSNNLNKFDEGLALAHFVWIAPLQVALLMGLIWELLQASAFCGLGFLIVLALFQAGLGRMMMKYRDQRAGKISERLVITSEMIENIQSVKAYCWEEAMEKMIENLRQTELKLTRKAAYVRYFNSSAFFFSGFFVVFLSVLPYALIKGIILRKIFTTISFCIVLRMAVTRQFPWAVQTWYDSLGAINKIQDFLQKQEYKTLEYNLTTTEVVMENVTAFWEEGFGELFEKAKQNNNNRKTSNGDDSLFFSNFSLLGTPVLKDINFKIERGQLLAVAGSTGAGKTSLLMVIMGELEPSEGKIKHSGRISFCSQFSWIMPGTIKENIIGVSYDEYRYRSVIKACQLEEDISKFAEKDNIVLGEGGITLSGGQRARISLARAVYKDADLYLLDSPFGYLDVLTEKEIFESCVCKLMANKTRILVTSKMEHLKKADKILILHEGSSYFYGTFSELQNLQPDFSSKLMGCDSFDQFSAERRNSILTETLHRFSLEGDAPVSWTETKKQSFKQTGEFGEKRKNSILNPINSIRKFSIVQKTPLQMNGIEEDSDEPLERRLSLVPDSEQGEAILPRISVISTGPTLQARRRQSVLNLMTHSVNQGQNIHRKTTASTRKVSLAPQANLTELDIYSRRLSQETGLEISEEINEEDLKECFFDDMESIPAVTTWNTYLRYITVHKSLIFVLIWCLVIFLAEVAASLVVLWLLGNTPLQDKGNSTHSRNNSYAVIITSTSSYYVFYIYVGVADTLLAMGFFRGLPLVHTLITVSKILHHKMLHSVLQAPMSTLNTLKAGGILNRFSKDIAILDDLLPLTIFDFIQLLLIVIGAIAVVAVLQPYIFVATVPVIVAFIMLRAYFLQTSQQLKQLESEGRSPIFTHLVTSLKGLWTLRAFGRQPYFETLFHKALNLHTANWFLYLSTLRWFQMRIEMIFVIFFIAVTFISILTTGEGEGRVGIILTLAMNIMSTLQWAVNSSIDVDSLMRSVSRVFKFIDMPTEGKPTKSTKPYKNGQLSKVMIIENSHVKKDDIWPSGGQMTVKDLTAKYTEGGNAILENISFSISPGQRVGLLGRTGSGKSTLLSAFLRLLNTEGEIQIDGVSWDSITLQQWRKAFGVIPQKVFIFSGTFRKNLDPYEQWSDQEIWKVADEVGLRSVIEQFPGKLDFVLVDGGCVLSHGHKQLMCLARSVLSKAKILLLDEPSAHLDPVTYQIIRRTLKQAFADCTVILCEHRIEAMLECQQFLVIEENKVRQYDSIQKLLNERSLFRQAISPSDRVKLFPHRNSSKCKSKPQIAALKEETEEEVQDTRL
Compound,Emax [%],EC50 [µM]
"CCOC(=O)c1ccc2c(-c3cccc(F)c3)nn(CC(=O)N(C)c3ccc4nc(C)oc4c3)c(=O)c2c1 [Example 67, ethyl 1-(3-fluorophenyl)-3-(2-(methyl(2-methyl-benzo[d]oxazol-6-yl)amino)-2-oxoethyl)-4-oxo-3,4-dihydrophthalazine-6-carboxylate]",30 to 80,< 10
"CCOC(=O)c1ccc2c(=O)n(CC(=O)N(C)c3ccc4nc(C)oc4c3)nc(-c3cccc(F)c3)c2c1 [Example 68, ethyl 4-(3-fluorophenyl)-2-(2-(methyl(2-methyl-benzo[d]oxazol-6-yl)amino)-2-oxoethyl)-1-oxo-1,2-dihydrophthalazine-6-carboxylate]",30 to 80,< 10
"COc1ccc2c(-c3cccc(C#N)c3)nn(CC(=O)N(C)c3ccc4c(c3)OC(F)(F)O4)c(=O)c2c1 [Example 69, 2-(4-(3-cyanophenyl)-7-methoxy-1-oxophthalazin-2(1H)-yl)-N-(2,2-difluorobenzo[d][1, 3]dioxol-5-yl)-N-methylacetamide]",> 80,
"COc1ccc2c(-c3ccc(S(N)(=O)=O)cc3)nn(CC(=O)N(C)c3ccc4c(c3)OC(F)(F)O4)c(=O)c2c1 [Example 71, N-(2,2-difluorobenzo[d][1,3]dioxol-5-yl)-2-(7-methoxy-1-oxo-4-(4-sulfamoylphenyl)phthalazin-2(1H)-yl)-N-methylacetamide]",30 to 80,
"CCN(C(=O)Cn1nc(-c2ccc(S(N)(=O)=O)cc2)c2ccc(OC)cc2c1=O)c1ccc2c(c1)OC(F)(F)O2 [Example 72, N-(2,2-difluorobenzo[d][1,3]dioxol-5-yl)-N-ethyl-2-(7-methoxy-1-oxo-4-(4-sulfamoylphenyl)phthalazin-2(1H)-yl)-acetamide]",> 80,
"CCN(C(=O)Cn1nc(-c2ccc(S(N)(=O)=O)cc2)c2ccc(OC)cc2c1=O)c1ccc(OC(F)F)cc1 [Example 73, N-(4-(difluoromethoxy)phenyl)-N-ethyl-2-(7-methoxy-1-oxo-4-(4-sulfamoylphenyl)phthalazin-2(1H)-yl)acetamide]",30 to 80,< 10
"CCN(C(=O)Cn1nc(-c2cccc(C#N)c2)c2ccc(OC)cc2c1=O)c1ccc(OC(F)F)cc1 [Example 74, 2-(4-(3-cyanophenyl)-7-methoxy-1-oxophthalazin-2(1H)-yl)-N-(4-(difluoromethoxy)phenyl)-N-ethylacetamide]",30 to 80,
"CCN(C(=O)Cn1nc(-c2cccc(C#N)c2)c2ccc(OC)cc2c1=O)c1ccc2c(c1)OC(F)(F)O2 [Example 75, 2-(4-(3-cyanophenyl)-7-methoxy-1-oxophthalazin-2(1H)-yl)-N-(2,2-difluorobenzo[d][1,3]dioxol-5-yl)-N-ethylacetamide]",> 80,< 10
"COc1ccc2c(-c3ccc(S(N)(=O)=O)cc3)nn(CC(=O)N(c3ccc4c(c3)OC(F)(F)O4)C(C)C)c(=O)c2c1 [Example 76, N-(2,2-difluorobenzo[d][1,3]dioxol-5-yl)-N-isopropyl-2-(7-methoxy-1-oxo-4-(4-sulfamoylphenyl)phthalazin-2(1H)-yl)acetamide]",> 80,
"COc1ccc2c(-c3cccc(C#N)c3)nn(CC(=O)N(c3ccc4c(c3)OC(F)(F)O4)C(C)C)c(=O)c2c1 [Example 77, 2-(4-(3-cyanophenyl)-7-methoxy-1-oxophthalazin-2(1H)-yl)-N-(2,2-difluorobenzo[d][1,3]dioxol-5-yl)-N-isopropylacetamide]",> 80,10 to 20
"COc1ccc2c(-c3ccc(S(N)(=O)=O)cc3)nn(CC(=O)N(c3ccc4c(c3)OC(F)(F)O4)C3CC3)c(=O)c2c1 [Example 78, N-cyclopropyl-N-(2,2-difluorobenzo[d][1,3]dioxol-5-yl)-2-(7-methoxy-1-oxo-4-(4-sulfamoylphenyl)phthalazin-2(1H)-yl)acetamide]",30 to 80,
"COc1ccc2c(-c3cccc(C#N)c3)nn(CC(=O)N(c3ccc4c(c3)OC(F)(F)O4)C3CC3)c(=O)c2c1 [Example 79, 2-(4-(3-cyanophenyl)-7-methoxy-1-oxophthalazin-2(1H)-yl)-N-cyclopropyl-N-(2,2-difluorobenzo[d][1,3]dioxol-5-yl)acetamide]",> 80,
"CCN(C(=O)Cn1nc(-c2ccc(S(N)(=O)=O)cc2)c2ccc(OC)cc2c1=O)c1ccc2nc(C)oc2c1 [Example 80, N-ethyl-2-(7-methoxy-1-oxo-4-(4-sulfamoylphenyl)phthalazin-2(1H)-yl)-N-(2-methylbenzo[d]oxazol-6-yl)acetamide]",30 to 80,10 to 20
"CCN(C(=O)Cn1nc(-c2cccc(C#N)c2)c2ccc(OC)cc2c1=O)c1ccc2nc(C)oc2c1 [Example 81, 2-(4-(3-cyanophenyl)-7-methoxy-1-oxophthalazin-2(1H)-yl)-N-ethyl-N-(2-methylbenzo[d]oxazol-6-yl)acetamide]",> 80,< 10
"CCN(C(=O)Cn1nc(-c2ccc(C(N)=O)cc2)c2ccc(OC)cc2c1=O)c1ccc2c(c1)OC(F)(F)O2 [Example 82, 4-(3-(2-((2,2-difluorobenzo[d][1, 3]dioxol-5-yl)(ethyl)amino)-2-oxoethyl)-6-methoxy-4-oxo-3,4-dihydrophthalazin-1-yl)benzamide]",30 to 80,
"COc1ccc2c(-c3ccc(C(N)=O)cc3)nn(CC(=O)N(C)c3ccc4c(c3)OC(F)(F)O4)c(=O)c2c1 [Example 83, 4-(3-(2-((2,2-difluorobenzo[d][1, 3]dioxol-5-yl)(methyl)amino)-2-oxoethyl)-6-methoxy-4-oxo-3,4-dihydrophthalazin-1-yl)benzamide]",30 to 80,
"CCN(C(=O)Cn1nc(-c2ccc(C(N)=O)cc2)c2ccc(OC)cc2c1=O)c1ccc2nc(C)oc2c1 [Example 84, 4-(3-(2-(ethyl(2-methylbenzo[d]oxazol-6-yl)amino)-2-oxoethyl)-6-methoxy-4-oxo-3,4-dihydrophthalazin-1-yl)benzamide]",30 to 80,
"[2H]C([2H])([2H])N(C(=O)Cn1nc(-c2cccc(C#N)c2)c2ccc(OC)cc2c1=O)c1ccc2nc(C)oc2c1 [Example 86, 2-(4-(3-cyanophenyl)-7-methoxy-1-oxophthalazin-2(1H)-yl)-N-(methyl-d3)-N-(2-methylbenzo[d]oxazol-6-yl)acetamide]",> 80,< 10
"COc1ccc2c(-c3cccc(C#N)c3)nn(CC(=O)N(C)c3ccc4nc(C)oc4c3)c(=O)c2c1 [Example 87, 2-(4-(3-cyanophenyl)-7-methoxy-1-oxophthalazin-2(1H)-yl)-N-methyl-N-(2-methylbenzo[d]oxazol-6-yl)acetamide]",> 80,< 10
"COc1cc2c(=O)n(CC(=O)N(C)c3ccc4nc(C)oc4c3)nc(-c3cccc(F)c3)c2cc1Cl [Example 93, 2-(6-chloro-4-(3-fluorophenyl)-7-methoxy-1-oxophthalazin-2(1H)-yl)-N-methyl-N-(2-methylbenzo[d]oxazol-6-yl)acetamide]",> 80,
"COc1cc2c(=O)n(CC(=O)N(C)c3ccc4c(c3)OC(F)(F)O4)nc(-c3cccc(C#N)c3)c2cc1Cl [Example 96, 2-(6-chloro-4-(3-cyanophenyl)-7-methoxy-1-oxophthalazin-2(1H)-yl)-N-(2,2-difluorobenzo[d][1,3]dioxol-5-yl)-N-methylacetamide]",> 80,< 10
"Cc1nc2ccc(N(C)C(=O)Cn3nc(-c4cccc(Cl)c4)c4ccc(O)cc4c3=O)cc2o1 [Example 98, 2-(4-(3-chlorophenyl)-7-hydroxy-1-oxophthalazin-2(1H)-yl)-N-methyl-N-(2-methylbenzo[d]oxazol-6-yl)acetamide]",,< 10
"Cc1nc2ccc(N(C(=O)Cn3nc(-c4cccc(F)c4)c4ccc(O)cc4c3=O)C3CC3)cc2o1 [Example 99, N-cyclopropyl-2-(4-(3-fluorophenyl)-7-hydroxy-1-oxophthalazin-2(1H)-yl)-N-(2-methylbenzo[d]oxazol-6-yl)acetamide]",> 80,
"Cc1nc2ccc(N(C(=O)Cn3nc(-c4cccc(Cl)c4)c4ccc(O)cc4c3=O)C3CC3)cc2o1 [Example 100, 2-(4-(3-chlorophenyl)-7-hydroxy-1-oxophthalazin-2(1H)-yl)-N-cyclopropyl-N-(2-methylbenzo[d]oxazol-6-yl)acetamide]",,< 10
"CN(C(=O)Cn1nc(-c2cccc(C#N)c2)c2ccc(O)cc2c1=O)c1ccc2c(c1)OC(F)(F)O2 [Example 102, 2-(4-(3-cyanophenyl)-7-hydroxy-1-oxophthalazin-2(1H)-yl)-N-(2,2-difluorobenzo[d][1,3]dioxol-5-yl)-N-methylacetamide]",> 80,< 10
"CCN(C(=O)Cn1nc(-c2cccc(C#N)c2)c2ccc(O)cc2c1=O)c1ccc2c(c1)OC(F)(F)O2 [Example 103, 2-(4-(3-cyanophenyl)-7-hydroxy-1-oxophthalazin-2(1H)-yl)-N-(2,2-difluorobenzo[d][1,3]dioxol-5-yl)-N-ethylacetamide]",> 80,< 10
"CCOc1ccc2c(-c3cccc(C#N)c3)nn(CC(=O)N(C)c3ccc4nc(C)oc4c3)c(=O)c2c1 [Example 109, 2-(4-(3-cyanophenyl)-7-ethoxy-1-oxophthalazin-2(1H)-yl)-N-methyl-N-(2-methylbenzo[d]oxazol-6-yl)acetamide]",> 80,< 10
"Cc1nc2ccc(N(C)C(=O)Cn3nc(-c4cccc(C#N)c4)c4ccc(OC5CCCCC5)cc4c3=O)cc2o1 [Example 115, 2-(4-(3-cyanophenyl)-7-(cyclohexyloxy)-1-oxophthalazin-2(1H)-yl)-N-methyl-N-(2-methylbenzo[d]oxazol-6-yl)acetamide]",> 80,< 10
"Cc1nc2ccc(N(C)C(=O)Cn3nc(-c4cccc(Cl)c4)c4ccc(OCc5ccccc5)cc4c3=O)cc2o1 [Example 116, 2-(7-(benzyloxy)-4-(3-chlorophenyl)-1-oxophthalazin-2(1H)-yl)-N-methyl-N-(2-methylbenzo[d]oxazol-6-yl)acetamide]",> 80,< 10
